Source: US20040224958A1, “Pyridopyrimidinone derivatives for treatment of neurodegenerative disease” (priority 2000, published 2004)
Where two headings read alike, the source gives them in different places.

Experiments:
cdk4/D = cdk4/D (Homo sapiens, UniProt P11802); assay: Cyclin-Dependent Kinase 4 (cdk4) Assay; assay type: biochemical; details: read-out: cdk4/D IC50
Cdk5/p25 = Cdk5/p25 (Homo sapiens, UniProt Q00535); assay: Cyclin-Dependent Kinase 5 High Throughput Screening (cdk5-HTS) Assay; assay type: biochemical; details: high throughput screen
Summary of the method: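 IC50 determined from 33P incorporation into GST-RbCOOH captured on glutathione plates and read by scintillation counting. Reaction: 1.0 μg/mL Cdk5/p25, 20 μM [γ33P]ATP, pH 7.4 Tris buffer with MgCl2 and DTT, 30 min at room temperature, stopped with EDTA.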

cdk2/cyclinE = cdk2/cyclinE (Homo sapiens, UniProt P24941); assay: Cyclin-Dependent Kinase Assay cdk2/cyclinE
cdk2/cyclinA = cdk2/cyclinA (Homo sapiens, UniProt P24941); assay: Cyclin-Dependent Kinase Assay cdk2/cyclinA
cdc2/cyclinB = cdc2/cyclinB (Homo sapiens, UniProt P06493); assay: Cyclin-Dependent Kinase Assay cdc2/cyclinB
cdc2/cyclinB, sequence (P06493 whole entry): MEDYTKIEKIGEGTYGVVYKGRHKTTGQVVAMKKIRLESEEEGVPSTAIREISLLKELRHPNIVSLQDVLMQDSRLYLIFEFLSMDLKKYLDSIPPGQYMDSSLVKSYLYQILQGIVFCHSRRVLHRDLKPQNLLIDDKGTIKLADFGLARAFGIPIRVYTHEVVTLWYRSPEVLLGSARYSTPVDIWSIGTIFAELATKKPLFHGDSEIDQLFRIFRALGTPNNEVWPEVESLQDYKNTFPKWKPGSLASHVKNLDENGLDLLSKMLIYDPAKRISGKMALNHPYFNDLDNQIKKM
cdc2/cyclinB, sequence (P14635 whole entry, further chain): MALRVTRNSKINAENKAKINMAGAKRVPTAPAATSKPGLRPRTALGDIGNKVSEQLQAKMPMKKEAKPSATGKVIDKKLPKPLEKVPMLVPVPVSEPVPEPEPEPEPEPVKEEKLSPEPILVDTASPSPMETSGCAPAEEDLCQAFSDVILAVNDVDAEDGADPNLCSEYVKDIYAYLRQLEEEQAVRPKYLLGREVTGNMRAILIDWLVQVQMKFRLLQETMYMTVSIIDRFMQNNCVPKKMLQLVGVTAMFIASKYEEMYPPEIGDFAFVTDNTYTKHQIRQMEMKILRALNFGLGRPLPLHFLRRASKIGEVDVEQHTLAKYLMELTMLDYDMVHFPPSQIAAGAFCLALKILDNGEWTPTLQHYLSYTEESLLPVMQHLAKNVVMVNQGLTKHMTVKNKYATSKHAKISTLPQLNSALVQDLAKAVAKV

cdk4/D, sequence (P11802 whole entry): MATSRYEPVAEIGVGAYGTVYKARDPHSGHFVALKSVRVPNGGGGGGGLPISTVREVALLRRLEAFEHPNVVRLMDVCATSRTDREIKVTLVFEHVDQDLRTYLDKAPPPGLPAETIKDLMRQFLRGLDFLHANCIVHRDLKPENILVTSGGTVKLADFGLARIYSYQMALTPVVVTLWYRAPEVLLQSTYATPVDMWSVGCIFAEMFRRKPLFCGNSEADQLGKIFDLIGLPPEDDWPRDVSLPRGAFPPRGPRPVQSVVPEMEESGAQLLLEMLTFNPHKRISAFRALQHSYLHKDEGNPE
cdk4/D, sequence (P24385 whole entry, further chain): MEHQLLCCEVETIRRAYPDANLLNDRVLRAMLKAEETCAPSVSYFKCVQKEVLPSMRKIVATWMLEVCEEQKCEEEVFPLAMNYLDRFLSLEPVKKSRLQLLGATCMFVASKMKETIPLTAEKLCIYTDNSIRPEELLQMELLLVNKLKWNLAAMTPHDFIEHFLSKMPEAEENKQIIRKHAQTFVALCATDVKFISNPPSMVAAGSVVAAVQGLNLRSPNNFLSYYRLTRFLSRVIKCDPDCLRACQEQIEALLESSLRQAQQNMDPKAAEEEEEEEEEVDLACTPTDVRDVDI

Compound	IC50 (cdk4/D)	IC50 (Cdk5/p25)	IC50 (cdk2/cyclinE; cdk2/E IC50)	IC50 (cdk2/cyclinA; cdk2/A IC50)	IC50 (cdc2/cyclinB)	IC50 (cdk2/cyclinE; read-out: cdk2/E IC50)	IC50 (cdk2/cyclinA; read-out: cdk2/A IC50)	IC50 (cdc2/cyclinB; read-out: cdk1/B IC50)
CC(C)n1c(=O)ccc2cnc(Nc3ccc4c(c3)CCCC4=O)nc21 [Example 431, 8-Isopropyl-2-(5-oxo-5,6,7,8-tetrahydro-naphthalen-2-ylamino)-8H-pyrido[2,3-d]pyrimidin-7-one]	0.14 µM	0.023 µM	0.12 µM	0.3 µM	0.17 µM			
8-Cyclopentyl-2-(2,4,6-trifluoro-phenylamino)-8H-pyrido[2,3-d]pyrimidin-7-one [Example 473]	0.51 µM	0.067 µM				0.47 µM	0.33 µM	0.4 µM
CCC(C)n1c(=O)ccc2cnc(Nc3ccc(F)c([N+](=O)[O-])c3)nc21 (stereo not shown) [Example 475, 8-sec-Butyl-2-(4-fluoro-3-nitro-phenylamino)-8H-pyrido[2,3-d]pyrimidin-7-one]	1.4 µM	0.48 µM	0.82 µM	1.5 µM	1.1 µM			
CCC(CC)n1c(=O)ccc2cnc(Nc3ccc4[nH]ccc4c3)nc21 [Example 492, 8-(1-Ethyl-propyl)-2-(1H-indol-5-ylamino)-8H-pyrido[2,3-d]pyrimidin-7-one]	0.124 µM	0.086 µM	0.163 µM	0.6 µM	0.145 µM			
CCCn1c(=O)ccc2cnc(Nc3ccc(OC)c(F)c3)nc21 [Example 338, 2-(3-Fluoro-4-methoxy-phenylamino)-8-propyl-8H-pyrido[2,3-d]pyrimidin-7-one]	0.27 µM	0.048 µM	0.17 µM	0.34 µM	0.57 µM			
CCC(CC)n1c(=O)ccc2cnc(Nc3ccc(NC(C)=O)c(C)c3)nc21 [Example 513, N-{4-[8-(1-Ethyl-propyl)-7-oxo-7,8-dihydro-pyrido[2,3-d]pyrimidin-2-ylamino]-2-methyl-phenyl}-acetamide]	0.83 µM	0.11 µM	0.33 µM	0.63 µM	0.16 µM			
8-(1-Ethyl-propyl)-2-(3-trifluoromethyl-phenylamino)-8H-pyrido[2,3-d]pyrimidin-7-one [Example 485]	0.232 µM	0.647 µM				0.131 µM	0.601 µM	0.241 µM
Cc1ccc(Nc2ncc3ccc(=O)n(C4CCCC4)c3n2)cc1C [Example 549, 8-Cyclopentyl-2-(3,4-dimethyl-phenylamino)-8H-pyrido[2,3-d]pyrimidin-7-one]	0.07 µM	0.059 µM	0.29 µM	0.19 µM	0.2 µM			
CCCCn1c(=O)ccc2cnc(Nc3ccc(NC(=O)OC(C)(C)C)cc3)nc21 [Example 381, [4-(8-Butyl-7-oxo-7,8-dihydro-pyrido[2,3-d]pyrimidin-2-ylamino)-phenyl]-carbamic acid tert-butyl ester]	0.4 µM	0.205 µM	0.133 µM	0.515 µM	0.15 µM			
CCCCn1c(=O)ccc2cnc(Nc3ccc(F)c(F)c3)nc21 [Example 397, 8-Butyl-2-(3,4-difluoro-phenylamino)-8H-pyrido[2,3-d]pyrimidin-7-one]	0.25 µM	0.081 µM	0.075 µM	0.31 µM	0.29 µM			
O=c1ccc2cnc(Nc3cc(Cl)c(O)c(Cl)c3)nc2n1CC1CC1 [Example 568, 8-Cyclopropylmethyl-2-(3,5-dichloro-4-hydroxy-phenylamino)-8H-pyrido[2,3-d]pyrimidin-7-one]	0.92 µM	0.102 µM	0.043 µM	0.102 µM	0.101 µM			
CCC(C)n1c(=O)ccc2cnc(Nc3cc(Cl)c(Cl)c(Cl)c3)nc21 (stereo not shown) [Example 461, 8-sec-Butyl-2-(3,4,5-trichloro-phenylamino)-8H-pyrido[2,3-d]pyrimidin-7-one]	0.55 µM	0.082 µM	0.78 µM	1.8 µM	0.46 µM			
CCCn1c(=O)ccc2cnc(Nc3cccc([N+](=O)[O-])c3)nc21 [Example 330, 2-(3-Nitro-phenylamino)-8-propyl-8H-pyrido[2,3-d]pyrimidin-7-one]	2.1 µM	0.435 µM	0.37 µM	1.15 µM	0.94 µM			
CCn1c(=O)ccc2cnc(Nc3ccc4[nH]nnc4c3)nc21 [Example 287, 2-(1H-Benzotriazol-5-ylamino)-8-ethyl-8H-pyrido[2,3-d]pyrimidin-7-one]	0.81 µM	0.081 µM	0.147 µM	0.365 µM	0.35 µM			
CCCn1c(=O)ccc2cnc(Nc3ccc(OC)c(O)c3)nc21 [Example 336, 2-(3-Hydroxy-4-methoxy-phenylamino)-8-propyl-8H-pyrido[2,3-d]pyrimidin-7-one]	2.4 µM	0.074 µM	0.12 µM	1.7 µM	0.32 µM			
CCC(CC)n1c(=O)ccc2cnc(Nc3ccc(C)c(C)c3)nc21 [Example 491, 2-(3,4-Dimethyl-phenylamino)-8-(I-ethyl-propyl)-8H-pyrido[2,3-d]pyrimidin-7-one]	0.26 µM	0.0444 µM	0.179 µM	0.436 µM	0.151 µM			
CCCCn1c(=O)ccc2cnc(Nc3ccc(Cl)c(C(F)(F)F)c3)nc21 [Example 401, 8-Butyl-2-(4-chloro-3-trifluoromethyl-phenylamino)-8H-pyrido[2,3-d]pyrimidin-7-one]	1.3 µM	0.292 µM	0.86 µM	0.88 µM	1.9 µM			
CCCCn1c(=O)ccc2cnc(Nc3ccc(C#N)c(NC(C)=O)c3)nc21 [Example 395, N-[5-(8-Butyl-7-oxo-7,8-dihydro-pyrido[2,3-d]pyrimidin-2-ylamino)-2-cyano-phenyl]-acetamide]	0.09 µM	0.091 µM	0.085 µM	0.34 µM	0.22 µM			
CC(C)(C)OC(=O)Nc1ccc(Nc2ncc3ccc(=O)n(C4CCCC4)c3n2)cc1 [Example 535, [4-(8-Cyclopentyl-7-oxo-7,8-dihydro-pyrido[2,3-d]pyrimidin-2-ylamino)-phenyl]-carbamic acid tert-butyl ester]	0.0635 µM	0.074 µM	0.0887 µM	0.22 µM	0.145 µM			
CCC(C)n1c(=O)ccc2cnc(Nc3ccc(O)cc3F)nc21 (stereo not shown) [Example 451, 8-sec-Butyl-2-(2-fluoro-4-hydroxy-phenylamino)-8H-pyrido[2,3-d]pyrimidin-7-one]	0.45 µM	0.133 µM	0.24 µM	0.555 µM	0.59 µM			
CCn1c(=O)ccc2cnc(Nc3ccc4[nH]ncc4c3)nc21 [Example 286, 8-Ethyl-2-(1H-indazol-5-ylamino)-8H-pyrido[2,3-d]pyrimidin-7-one]	0.475 µM	0.108 µM	0.223 µM	0.63 µM	0.275 µM			
CC1Nc2ccc(Nc3ncc4ccc(=O)n(C5CCCC5)c4n3)cc2C1C (stereo not shown) [Example 552, 8-Cyclopentyl-2-(2,3-dimethyl-2,3-dihydro-1H-indol-5-ylamino)-8H-pyrido[2,3-d]pyrimidin-7-one]	0.18 µM	0.054 µM	0.15 µM	0.21 µM	0.048 µM			
CCC(C)n1c(=O)ccc2cnc(Nc3ccc4[nH]ncc4c3)nc21 (stereo not shown) [Example 448, 8-sec-Butyl-2-(1H-indazol-5-ylamino)-8H-pyrido[2,3-d]pyrimidin-7-one]	0.046 µM	0.0085 µM	0.02 µM	0.052 µM	0.0265 µM			
CCn1c(=O)ccc2cnc(Nc3ccc(F)c(C)c3)nc21 [Example 294, 8-Ethyl-2-(4-fluoro-3-methyl-phenylamino)-8H-pyrido[2,3-d]pyrimidin-7-one]	0.41 µM	0.043 µM	0.13 µM	0.64 µM	0.21 µM			
CC(=O)Nc1cc(Nc2ncc3ccc(=O)n(CC4CC4)c3n2)ccc1C [Example 585]	0.21 µM	0.45 µM	0.32 µM	0.18 µM	0.34 µM			
8-Cyclopentyl-2-(3-fluoro-4-methoxy-phenylamino)-8H-pyrido[2,3-d]pyrimidin-7-one [Example 542]	0.0095 µM	0.0077 µM				0.035 µM	0.075 µM	0.085 µM
O=c1ccc2cnc(Nc3ccc4[nH]nnc4c3)nc2n1CC1CC1 [Example 564, 2-(1H-Benzotriazol-5-ylamino)-8-cyclopropylmethyl-8H-pyrido[2,3-d]pyrimidin-7-one]	0.505 µM	0.052 µM	0.05 µM	0.117 µM	0.0945 µM			
CCC(C)n1c(=O)ccc2cnc(Nc3ccc(OC)cc3)nc21 (stereo not shown) [Example 455, 8-sec-Butyl-2-(4-methoxy-phenylamino)-8H-pyrido[2,3-d]pyrimidin-7-one]	0.11 µM	0.0505 µM	0.463 µM	0.17 µM	0.0985 µM			
CCC(CC)n1c(=O)ccc2cnc(Nc3ccc(C(F)(F)F)cc3)nc21 [Example 526, 8-(1-Ethyl-propyl)-2-(4-trifluoromethyl-phenylamino)-8H-pyrido[2,3-d]pyrimidin-7-one]	0.085 µM	0.088 µM	0.2 µM	0.16 µM	0.14 µM			
